The source of these data is patent US20210186970A1, “SELECTIVE CALCIUM CHANNEL ANTAGONISTS” (Northwestern University, priority 2011, published 2021).

The structures appear in SMILES notation. Like-named read-outs stand apart in the source and are kept apart here.

In assay [1] the target is T1, Cav1.3 L-type Ca channels (Rattus norvegicus, UniProt P27732).
T1 construct: expressed in transfected cells; host or cells: HEK293
Description: FLIPR Fluo-8 calcium assay, Cav1.3 channel inhibition in HEK293 cells. It counts as cell-based. The following applies: for IC50: FLIPR, HEK293, value (±SD).

Assay [2] addresses Cav1.2 L-type Ca channels (Oryctolagus cuniculus, UniProt P15381). Description: FLIPR Fluo-8 calcium assay, Cav1.2 channel inhibition in HEK293 cells.
The mark [3] stands for this setting: IC50 (μM) Cav1.3, third library.
Where [4] appears, read: third library, ratio of IC50 Cav1.2 to Cav1.3.
Setting [5] is: IC50 (μM) Cav1.2, third library, FLIPR, HEK293, value (±SD).
Where [6] appears, read: IC50 (μM) CaV1.3, first library.
Where [7] appears, read: first library, ratio of IC50 Cav1.2 to Cav1.3.
Setting [8] is: IC50 (μM) CaV1.2, first library, FLIPR, HEK293, value (±SD).
[9] abbreviates: IC50 (μM) Cav1.3, second library.
Where [10] appears, read: second library, ratio of IC50 Cav1.2 to Cav1.3.
Setting [11] is: IC50 (μM) Cav1.2, second library, FLIPR, HEK293, value (±SD).

Cav1.2 L-type Ca channels, sequence (P15381 whole entry): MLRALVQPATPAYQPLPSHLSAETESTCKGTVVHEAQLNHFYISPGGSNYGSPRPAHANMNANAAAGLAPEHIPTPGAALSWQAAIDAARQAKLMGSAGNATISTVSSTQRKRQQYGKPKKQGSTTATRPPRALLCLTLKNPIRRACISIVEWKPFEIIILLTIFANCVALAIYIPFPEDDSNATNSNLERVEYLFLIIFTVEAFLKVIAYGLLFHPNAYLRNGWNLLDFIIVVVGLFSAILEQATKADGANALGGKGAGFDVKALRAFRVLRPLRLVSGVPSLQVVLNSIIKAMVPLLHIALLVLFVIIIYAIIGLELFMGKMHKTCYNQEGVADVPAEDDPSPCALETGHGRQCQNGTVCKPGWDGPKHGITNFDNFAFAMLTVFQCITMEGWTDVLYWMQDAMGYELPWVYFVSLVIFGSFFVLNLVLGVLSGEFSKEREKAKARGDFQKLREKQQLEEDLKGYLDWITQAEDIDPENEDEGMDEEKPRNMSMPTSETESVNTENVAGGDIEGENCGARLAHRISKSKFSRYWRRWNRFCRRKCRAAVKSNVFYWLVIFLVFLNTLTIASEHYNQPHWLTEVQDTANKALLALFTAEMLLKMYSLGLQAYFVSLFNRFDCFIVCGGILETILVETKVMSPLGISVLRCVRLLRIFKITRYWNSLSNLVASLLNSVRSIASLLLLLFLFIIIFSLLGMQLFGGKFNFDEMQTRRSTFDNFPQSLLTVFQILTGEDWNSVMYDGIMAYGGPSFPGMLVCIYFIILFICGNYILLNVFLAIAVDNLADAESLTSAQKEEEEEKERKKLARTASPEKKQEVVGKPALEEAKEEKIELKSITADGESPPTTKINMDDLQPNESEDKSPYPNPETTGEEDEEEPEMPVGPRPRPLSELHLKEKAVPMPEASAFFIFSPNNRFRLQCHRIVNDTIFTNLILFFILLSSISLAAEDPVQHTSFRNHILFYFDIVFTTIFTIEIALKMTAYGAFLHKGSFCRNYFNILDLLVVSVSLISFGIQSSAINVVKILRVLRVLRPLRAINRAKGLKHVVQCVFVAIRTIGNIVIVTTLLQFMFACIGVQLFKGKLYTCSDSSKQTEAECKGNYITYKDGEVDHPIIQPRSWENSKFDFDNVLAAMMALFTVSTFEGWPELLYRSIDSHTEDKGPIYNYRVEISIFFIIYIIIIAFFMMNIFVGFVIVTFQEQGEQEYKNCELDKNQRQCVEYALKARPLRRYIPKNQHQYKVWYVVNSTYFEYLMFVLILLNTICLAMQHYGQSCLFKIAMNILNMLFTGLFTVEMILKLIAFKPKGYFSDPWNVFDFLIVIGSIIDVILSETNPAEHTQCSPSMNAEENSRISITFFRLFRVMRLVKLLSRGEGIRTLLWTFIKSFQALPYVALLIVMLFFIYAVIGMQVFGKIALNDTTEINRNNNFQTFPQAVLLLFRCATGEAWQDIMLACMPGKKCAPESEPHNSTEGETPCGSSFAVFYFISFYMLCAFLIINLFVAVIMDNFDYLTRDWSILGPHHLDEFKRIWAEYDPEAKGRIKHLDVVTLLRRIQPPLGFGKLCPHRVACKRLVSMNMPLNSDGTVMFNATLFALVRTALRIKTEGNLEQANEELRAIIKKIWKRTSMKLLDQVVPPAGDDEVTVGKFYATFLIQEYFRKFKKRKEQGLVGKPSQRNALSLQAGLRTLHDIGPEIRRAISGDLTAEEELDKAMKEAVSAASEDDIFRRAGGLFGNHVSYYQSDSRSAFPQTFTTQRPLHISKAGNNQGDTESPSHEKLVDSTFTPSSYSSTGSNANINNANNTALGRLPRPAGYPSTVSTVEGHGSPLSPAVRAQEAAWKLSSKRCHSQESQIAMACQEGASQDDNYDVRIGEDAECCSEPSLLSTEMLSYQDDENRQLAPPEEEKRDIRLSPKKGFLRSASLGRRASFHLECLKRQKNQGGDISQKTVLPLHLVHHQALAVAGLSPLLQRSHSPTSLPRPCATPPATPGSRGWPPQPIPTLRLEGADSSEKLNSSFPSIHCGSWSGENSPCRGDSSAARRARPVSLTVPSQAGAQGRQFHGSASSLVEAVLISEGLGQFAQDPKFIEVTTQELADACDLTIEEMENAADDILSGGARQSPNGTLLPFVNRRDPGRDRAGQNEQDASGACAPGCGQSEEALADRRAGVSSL
Cav1.2 L-type Ca channels, sequence (P54284 whole entry partner): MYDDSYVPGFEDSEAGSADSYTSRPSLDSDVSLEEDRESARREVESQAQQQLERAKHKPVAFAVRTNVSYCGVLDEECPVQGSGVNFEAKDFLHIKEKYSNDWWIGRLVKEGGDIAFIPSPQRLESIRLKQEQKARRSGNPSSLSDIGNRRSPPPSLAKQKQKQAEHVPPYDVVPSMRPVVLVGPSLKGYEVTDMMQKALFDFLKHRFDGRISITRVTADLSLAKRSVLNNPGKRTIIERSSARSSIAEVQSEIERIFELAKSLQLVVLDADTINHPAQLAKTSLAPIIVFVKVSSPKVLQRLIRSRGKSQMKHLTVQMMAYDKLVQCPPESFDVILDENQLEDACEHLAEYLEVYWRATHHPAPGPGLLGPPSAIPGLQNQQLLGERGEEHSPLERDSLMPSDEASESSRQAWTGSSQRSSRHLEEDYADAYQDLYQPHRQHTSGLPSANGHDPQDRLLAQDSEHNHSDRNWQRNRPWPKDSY
Cav1.2 L-type Ca channels, sequence (P54289 25-956 partner limits assumed): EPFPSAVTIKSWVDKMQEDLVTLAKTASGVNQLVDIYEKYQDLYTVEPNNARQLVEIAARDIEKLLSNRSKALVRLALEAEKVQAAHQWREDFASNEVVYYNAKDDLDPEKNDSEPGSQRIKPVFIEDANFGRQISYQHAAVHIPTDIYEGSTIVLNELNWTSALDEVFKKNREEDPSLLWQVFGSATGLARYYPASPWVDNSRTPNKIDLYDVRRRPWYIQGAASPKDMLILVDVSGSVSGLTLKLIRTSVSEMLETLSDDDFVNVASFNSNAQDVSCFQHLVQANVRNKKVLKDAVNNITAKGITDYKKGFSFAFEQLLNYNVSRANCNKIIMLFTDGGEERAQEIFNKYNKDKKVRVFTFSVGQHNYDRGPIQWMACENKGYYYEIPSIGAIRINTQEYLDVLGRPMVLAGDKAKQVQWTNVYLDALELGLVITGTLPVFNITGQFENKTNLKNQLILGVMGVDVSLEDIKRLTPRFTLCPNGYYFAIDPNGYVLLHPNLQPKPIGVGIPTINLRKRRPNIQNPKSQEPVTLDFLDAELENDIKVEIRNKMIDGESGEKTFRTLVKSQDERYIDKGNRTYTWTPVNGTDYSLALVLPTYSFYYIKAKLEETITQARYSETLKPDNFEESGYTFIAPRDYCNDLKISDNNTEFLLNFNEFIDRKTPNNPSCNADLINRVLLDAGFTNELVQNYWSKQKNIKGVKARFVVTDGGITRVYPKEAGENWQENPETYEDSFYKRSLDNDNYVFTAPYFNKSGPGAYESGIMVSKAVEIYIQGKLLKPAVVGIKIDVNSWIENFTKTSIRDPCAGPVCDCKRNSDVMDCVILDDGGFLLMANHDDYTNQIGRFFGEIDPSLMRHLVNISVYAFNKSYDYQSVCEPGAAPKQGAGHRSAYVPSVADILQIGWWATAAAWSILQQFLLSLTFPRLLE
Cav1.2 L-type Ca channels, sequence (P54289 957-1103 partner limits assumed): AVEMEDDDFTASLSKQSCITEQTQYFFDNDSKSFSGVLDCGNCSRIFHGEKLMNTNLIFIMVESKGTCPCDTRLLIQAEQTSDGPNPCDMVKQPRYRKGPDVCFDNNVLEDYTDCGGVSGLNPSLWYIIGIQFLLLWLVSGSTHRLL

The term IC50 denotes the concentration that inhibits the measured activity by half. For the compound `O=C1CC(=O)N(C2C3CC4CC(C3)CC2C4)C(=O)N1CCc1cccc(Cl)c1` (centres unmarked) [Compound 117], the IC50 in assay [1] (setting [3]) came to 1.6 µM; in assay [2] (setting [5]), 3.1 µM. Further, the Selectivity in assay [1] (setting [4]) was 2.0.
For `O=C1CC(=O)N(CC2CCCCC2)C(=O)N1CCc1ccc(Cl)cc1` [Compound 110] the same measures were 1.7 µM, 46.8 µM and 27.3.
Consider `COC(=O)[C@H](CC(C)C)N1C(=O)CC(=O)N(CCc2ccc(Cl)cc2)C1=O` [Compound 36], for which the IC50 was 20.6 µM in assay [1] (setting [6]) and 17.1 µM in assay [2] (setting [8]). Besides, in assay [1] (setting [7]), the Selectivity came out at 0.8.
For `O=C1CC(=O)N(CCc2ccc3ccccc3c2)C(=O)N1CCc1ccc(Cl)c(Cl)c1` [Compound 63] the same measures were 4 µM, 3.8 µM and 1.0.
In the case of `O=C1CC(=O)N(CCc2cccc(F)c2)C(=O)N1CCCc1ccccc1` [Compound 56], the IC50 in assay [1] (setting [6]) turned out to be 1.6 µM; in assay [2] (setting [8]), 2.5 µM. Moreover, the Selectivity in assay [1] (setting [7]) came out at 1.5.
As for `O=C1CC(=O)N(C23CC4CC(CC(C4)C2)C3)C(=O)N1CCc1cccc(Cl)c1` [Compound 115], the values for the IC50 in assay [1] (setting [3]) and in assay [2] (setting [5]) were 2.6 µM and 1.9 µM, respectively. Moreover, in assay [1] (setting [4]), the Selectivity came out at 0.7.
Turning to `Cc1ccc(CCN2C(=O)CC(=O)N(C3CCCC3)C2=O)cc1` [Compound 98], the IC50 in assay [1] (setting [3]) worked out at 1.7 µM; in assay [2] (setting [5]), 35.8 µM. Also, the Selectivity in assay [1] (setting [4]) was 20.7.
For `Cc1ccc(CCN2C(=O)CC(=O)N(C3CCCCC3)C2=O)cc1` [Compound 74], the IC50 in assay [1] (setting [9]) turned out to be 1.8 µM; in assay [2] (setting [11]), 6.1 µM. Also, the Selectivity in assay [1] (setting [10]) worked out at 3.4.
For `O=C1CC(=O)N(CCc2ccc(Br)cc2)C(=O)N1CCCCc1ccccc1` [Compound 40], the figures for the IC50 in assay [1] (setting [6]) and in assay [2] (setting [8]) were 1.1 µM and 2 µM, respectively. Further, the Selectivity in assay [1] (setting [7]) is recorded as 1.9.
For `O=C1CC(=O)N(CCc2cccc([N+](=O)[O-])c2)C(=O)N1CCc1ccc(Cl)cc1` [Compound 24], in that order: 2.7 µM, 2.6 µM and 1.0.
For `C=CCOC(=O)[C@H](Cc1ccccc1)N1C(=O)CC(=O)N(CCc2ccc(Cl)cc2)C1=O` [Compound 37] the same measures were 9.4 µM, 9.1 µM and 1.0.
For the compound `O=C1CC(=O)N(C2CCCCC2)C(=O)N1CCc1ccc(Br)cc1` [Compound 77], the IC50 in assay [1] (setting [9]) was determined as 0.8 µM; in assay [2] (setting [11]), 21.3 µM. Also, in assay [1] (setting [10]), the Selectivity came to 26.4.
Consider `O=C1CC(=O)N(C2CCCCC2)C(=O)N1Cc1cccc([N+](=O)[O-])c1` [Compound 83], for which the IC50 stood at 48.2 µM in assay [1] (setting [9]) and 59.5 µM in assay [2] (setting [11]). In addition, the Selectivity in assay [1] (setting [10]) stood at 1.2.
Regarding `O=C1CC(=O)N(CCc2cccc([N+](=O)[O-])c2)C(=O)N1CCCCc1ccccc1` [Compound 47], the IC50 in assay [1] (setting [6]) and in assay [2] (setting [8]) was 3 µM in each case. Also, the Selectivity in assay [1] (setting [7]) is 1.0.
In the case of `O=C1CC(=O)N(C2CCCCC2)C(=O)N1Cc1ccc(Cl)cc1` [Compound 82], in assay [1], the Selectivity is listed as 14.7. The IC50 worked out at 8.1 µM in assay [1] (setting [9]) and 119 µM in assay [2] (setting [11]).
As to `N#Cc1cccc(CCN2C(=O)CC(=O)N(C3CCCCC3)C2=O)c1` [Compound 79], the IC50 in assay [1] (setting [9]) was 10.5 µM; in assay [2] (setting [11]), 36.5 µM. In addition, the Selectivity in assay [1] (setting [10]) was 3.5.
As to `CC(CN1C(=O)CC(=O)N(CCc2ccc(Cl)cc2)C1=O)c1ccccc1` (centres unmarked) [Compound 21], the figures for the half-inhibitory concentration (IC50) in assay [1] (setting [6]) and in assay [2] (setting [8]) were 1.3 µM and 6.2 µM, respectively. For the same compound, the Selectivity in assay [1] (setting [7]) was determined as 5.0.
As for `O=C1CC(=O)N([C@H]2C[C@@H]3CC[C@H]2C3)C(=O)N1CCc1cccc(Cl)c1` (racemic) [Compound 112], the IC50 in assay [1] (third library, read-out: IC50 (μM) Cav1.3) came to 1.9 µM; in assay [2] (setting [5]) it was 6.3 µM.
`O=C1CC(=O)N(C2CCC2)C(=O)N1CCc1cccc(Cl)c1` [Compound 99]: the figures for the IC50 in assay [1] (setting [3]) and in assay [2] were 2.7 µM and 14.6 µM, respectively. Further, the Selectivity in assay [1] (setting [4]) turned out to be 5.4.
`O=C1CC(=O)N(CCc2cccc([N+](=O)[O-])c2)C(=O)N1CCCc1ccccc1` [Compound 58]: the IC50 in assay [1] (setting [6]) is 10.4 µM; in assay [2] (setting [8]), 9.5 µM. Further, the Selectivity in assay [1] (setting [7]) is 0.9.
Turning to `O=C1CC(=O)N(C2CCCCCC2)C(=O)N1CCc1ccc(Cl)cc1` [Compound 92], the IC50 in assay [1] (setting [3]) was determined as 2.2 µM; in assay [2] (setting [5]), 32.8 µM. Moreover, the Selectivity in assay [1] (setting [4]) was 15.0.
As to `O=C1CC(=O)N(C2CC2)C(=O)N1CCc1ccc(Cl)cc1` [Compound 102], the IC50 in assay [1] (setting [3]) was found to be 19.6 µM; in assay [2], 5 µM. Further, the Selectivity in assay [1] (setting [4]) worked out at 0.3.
Turning to `O=C1CC(=O)N(CCc2ccc3ccccc3c2)C(=O)N1CCc1ccc(F)cc1` [Compound 64], the IC50 was 1.8 µM in assay [1] (setting [6]) and 3.8 µM in assay [2] (setting [8]). Moreover, in assay [1] (setting [7]), the Selectivity amounted to 2.1.
For `Cc1ccc(CCN2C(=O)CC(=O)N(CCc3ccc(Cl)cc3)C2=O)cc1` [Compound 17] the same measures were 1.1 µM, 7.1 µM and 6.7.
As for `O=C1CC(=O)N(C23CC4CC(CC(C4)C2)C3)C(=O)N1CCc1ccc(Cl)cc1` [Compound 114], the IC50 in assay [1] (setting [3]) was 3.2 µM; in assay [2] (setting [5]), 2.6 µM. For the same compound, the Selectivity in assay [1] (setting [4]) is on record as 0.8.
Consider `O=C1CC(=O)N(CCc2cccc(F)c2)C(=O)N1CCCCc1ccccc1` [Compound 42], for which the IC50 is 1.6 µM in assay [1] (setting [6]) and 5.3 µM in assay [2] (setting [8]). For the same compound, the Selectivity in assay [1] (setting [7]) amounted to 3.3.
For `O=C1CC(=O)N(C2CCc3ccccc32)C(=O)N1CCc1ccc(Cl)cc1` (centres unmarked) [Compound 32], in that order: 8.4 µM, 14.5 µM and 1.7.
Consider `CCCCCCCCN1C(=O)CC(=O)N(CCCc2ccccc2)C1=O` [Compound 60], for which the IC50 in assay [1] (first library, read-out: IC50 (μM) CaV1.3) turned out to be 1.1 µM; in assay [2] (setting [8]), 2.6 µM. In assay [1] (setting [7]), the Selectivity amounted to 2.5.
With `Cc1ccc(CCN2C(=O)CC(=O)N(CCCCc3ccccc3)C2=O)cc1` [Compound 41], the IC50 turned out to be 1.1 µM in assay [1] (setting [6]) and 15.5 µM in assay [2] (setting [8]). Further, the Selectivity in assay [1] (setting [7]) is 14.1.
`O=C1CC(=O)N(CCc2ccc(Cl)c(Cl)c2)C(=O)N1CCCCc1ccccc1` [Compound 39]: the IC50 came to 1.3 µM in assay [1] (setting [6]) and 3.1 µM in assay [2] (setting [8]). For the same compound, in assay [1] (setting [7]), the Selectivity is 2.3.
Take `O=C1CC(=O)N(C2CCCCCC2)C(=O)N1CCc1cccc(Cl)c1` [Compound 91]: the IC50 in assay [1] (setting [3]) was 2.5 µM; in assay [2] (setting [5]) it was 45.6 µM. In assay [1] (setting [4]), the Selectivity is listed as 18.5.
For the compound `CCCCCCCCN1C(=O)CC(=O)N(CCc2ccc(Cl)cc2)C1=O` [Compound 28], the IC50 stood at 1.5 µM in assay [1] (setting [6]) and 2.8 µM in assay [2] (setting [8]). Moreover, in assay [1] (setting [7]), the Selectivity came to 1.9.
In the case of `Cc1ccc(CCN2C(=O)CC(=O)N(C3CCCCCC3)C2=O)cc1` [Compound 94], the results for the IC50 in assay [1] (setting [3]) and in assay [2] (setting [5]) were 0.9 µM and 14.9 µM, respectively. Also, the Selectivity in assay [1] (setting [4]) was 16.0.
For the compound `O=C1CC(=O)N(CCc2ccc(Cl)c(Cl)c2)C(=O)N1CCCc1ccccc1` [Compound 54], the results for the IC50 in assay [1] (setting [6]) and in assay [2] (setting [8]) were 4.3 µM and 6.9 µM, respectively. For the same compound, the Selectivity in assay [1] (setting [7]) worked out at 1.6.
Regarding `CC(CN1C(=O)CC(=O)N(C2CCCC2)C1=O)c1ccccc1` (racemic) [Compound 96], the values for the IC50 in assay [1] (setting [3]) and in assay [2] (setting [5]) were 1 µM and 16.9 µM, respectively. For the same compound, in assay [1] (setting [4]), the Selectivity worked out at 17.6.
`O=C1CC(=O)N(CCc2cccc(Cl)c2)C(=O)N1CCCCc1ccccc1` [Compound 38]: the values for the IC50 in assay [1] (setting [6]) and in assay [2] (setting [8]) were 1.3 µM and 6.2 µM, respectively. Also, the Selectivity in assay [1] (setting [7]) is listed as 4.9.
As for `O=C1CC(=O)N(C2CCCC2)C(=O)N1CCc1ccc(Cl)cc1` [Compound 29], the values for the IC50 in assay [1] (setting [6]) and in assay [2] (setting [8]) were 1.4 µM and 22.4 µM, respectively. The Selectivity in assay [1] (setting [7]) was found to be 16.4.
As to `N#Cc1ccc(CCN2C(=O)CC(=O)N(C3CCCCC3)C2=O)cc1` [Compound 78], the IC50 in assay [1] (setting [9]) turned out to be 49.8 µM; in assay [2] (setting [11]), 56 µM. Further, the Selectivity in assay [1] (setting [10]) came to 1.1.
`CC(C)(C)N1C(=O)CC(=O)N(CCc2cccc(C(F)(F)F)c2)C1=O` [Compound 106]: the IC50 in assay [1] (setting [3]) was 1.1 µM; in assay [2] (setting [5]) it was 6.1 µM. Moreover, the Selectivity in assay [1] (setting [4]) amounted to 5.7.
`O=C1CC(=O)N(CC2CCCCC2)C(=O)N1CCc1cccc(C(F)(F)F)c1` [Compound 111]: the IC50 came to 0.9 µM in assay [1] (setting [3]) and 20.4 µM in assay [2] (setting [5]). Moreover, the Selectivity in assay [1] (setting [4]) turned out to be 22.1.
As to `O=C1CC(=O)N(Cc2cccc([N+](=O)[O-])c2)C(=O)N1CCc1ccc(Cl)cc1` [Compound 22], the IC50 came to 21.2 µM in assay [1] (setting [6]) and 9.5 µM in assay [2] (setting [8]). Besides, the Selectivity in assay [1] (setting [7]) stood at 0.4.
For `O=C1CC(=O)N(CCc2ccc(Br)cc2)C(=O)N1CCc1ccc(Cl)cc1` [Compound 16] the same measures were 1.6 µM, 2.1 µM and 1.3.
In the case of `O=C1CC(=O)N(C2CCCCCC2)C(=O)N1CCc1cccc(C(F)(F)F)c1` [Compound 90], the IC50 in assay [1] (setting [3]) worked out at 1.7 µM; in assay [2] (setting [5]) it was 5.7 µM. Moreover, the Selectivity in assay [1] (setting [4]) amounted to 3.4.
In the case of `COC(=O)[C@H](C)N1C(=O)CC(=O)N(CCc2ccc(Cl)cc2)C1=O` [Compound 35], the IC50 in assay [1] (setting [6]) came out at 77.7 µM; in assay [2] (setting [8]), 88.2 µM. The Selectivity in assay [1] (setting [7]) amounted to 1.1.
